Patent publication US20150198584A1, “IDENTIFICATION OF […] STATES” ([…] AG, priority 2014, published 2015)
Entries after “also recorded” stand apart in the source; their conditions may differ.

How the values were obtained:
[1] = test system: HL-60 cell line; assay: Cell physiology assay plate 1a (MBBR, CALCEIN AM, MITOSOX RED, SYTOXRED, light scatter) by flow cytometry; type: cell-based, human
Procedure: (§1) Cells were deposited into 384 well plates (1×10^6 cells in 40 μl tissue culture media) and serial dilutions of test compounds (or vehicle in the case of controls) were deposited in individual wells using standard robotic techniques. Compound deposition and dilution was performed by BIOMEK FX (5 or 10 step dilutions from 100 to 0.005 μM). Dilutions were prepared from stock solutions of compounds dissolved initially in 100% DMSO. Final volume deposited into each well is 2 μl of each compound dilution (compounds are in a final concentration of 1% DMSO). After incubation in a tissue culture incubator (5% CO2 at 37° C.) for varying periods of time (typically 4 hours), plates were centrifuged at room temperature, followed by removal of 20 μl supernatant fluid, After vibration of the plate to re-suspend cells, a dye mix (Plate in Monobromobimane, CALCEIN AM, MITOSOX™ and SYTOSOX™ RED; plate 1b VYBRANVIOLET™ Live Cell Cycle dye, JC-9, and SYTOSOX™ RED) was added in a total volume of 20 μl, followed by an additional mixing step.
(§2) Data was acquired using a CYAN™ flow cytometer, with the […]™ software used to compile files for each well on an individual plate using an FCS format. Data for each plate was subsequently analyzed for several quality assurance parameters (total number of events per well, numbers of events associated with morphologically normal events, number of dead cells), as described below.
Flow cytometric analyses of intrinsic cell properties (forward light scatter and light scattered orthogonal to the laser beam) and fluorescence signals derived from the dyes listed in Table 1 was carried out for plates 1a and 1b.
MITOSOX™ RED is a compound that can diffuse into viable cells and reacts with superoxide anion species, particularly products of mitochondrial respiration; conditions such as cell stress can cause mitochondria to respond (sometimes rapidly) by increasing respiration and/or release superoxide anions; and
(3) SYTOXRED™ to measure cell viability (loss of nuclear membrane integrity). SYTOXRED™ is a high-affinity DNA stain that can only pass through the cytoplasmic and nuclear membranes of cells which have lost the integrity of both membranes; thus, brightly fluorescent cells are dead.

[2] = test system: K562 cells; assay: Cell cycle measured by DNA content in K562 cells; type: cell-based, human; conditions: 30 min exposure, listed as imatinib
Procedure: Cells were deposited onto dilutions of test compounds deposited into individual wells of 96 well plates, as indicated above. […] Following 15 min incubation (at 37° C.?), cells were pelleted by centrifugation, supernatant removed, and the cells were suspended by vibrating the plate.
Cell were permeabilized by adding 150 μl cold absolute methanol, followed by incubation at 4° C. for 15 minutes. Permeabilized cells were centrifuged, supernatant removed, and cells were washed three times with cold (4° C.) PBS containing 4% FBS. Following the final wash, cells were centrifuged, the supernatant was removed, and cells were re-suspended in an antibody cocktail (total volume 20 μl) appropriate for that experiment.

[3] = test system: human peripheral blood monocytes; assay: Kinetics of signal transduction responses to LPS in whole blood monocytes, flow cytometry of fixed and permeabilized cells; type: cell-based; conditions: LPS in the presence of the inhibitor, compared to LPS alone
[4] = test system: HL-60 cells; assay: Mitochondrial membrane potential (MMP) with JC-9, red and green fluorescence, flow cytometry; type: cell-based, human
Procedure: as §1, with “step. Plates were returned to the tissue culture incubator (5% CO2 at 37° C.) for an additional 15 min (plate 1a) or 30 min (plate 1b), followed by immediate analysis using the […]-CYAN™.” for “step.”
as §2, with “Each well of the 384 wellplate was sampled with a 6 second sip time, plus 1 second delay between wells, resulting in a total read time for each plate of approximately 45 minutes. Data was” for “Data was”
Measurements identical to those described in Example 2 above were made using a second combination of dyes:
(2) JC-9 to measure mitochondrial membrane potential (MMP); and
The measurement of mitochondrial membrane potential (MMP) with JC-9 was performed with two independent fluorescence channels (green and red fluorescence signals), as changes in MMP cause aggregation of the dye, with different fluorescence emission by the aggregated versus non-aggregated dye molecules. […] At higher valinomycin concentrations, red fluorescence […]. A unique aspect of this assay is that it correlates changes in MMP (JC-9) and cell death (SYTOXRED™) with the phases of the cell cycle (G1, S, and G2M).

[5] = 33 μM, population with altered morphology, compared to cells with normal morphology
[6] = 33 μM, population with normal morphology
[7] = HL-60 cells, concentration series
[8] = HL-60 cells, increasing concentration

## CO/C(=C/C(N)=O)[C@H](C)[C@H](/C=C/c1csc(-c2csc([C@@H](C)/C=C/C=C/C(C)C)n2)n1)OC [myxothiazol]
[1]; 100 μM, affected cells
  CALCEIN AM (cytoplasmic membrane permeability): decrease
  GSH (MBBR): decrease
  ROS (MITOSOX RED): increase
  SYTOXRED (cytoplasmic and nuclear membrane permeability, viability): increase
  cell morphology (light scatter): significant change
[1]; 100 μM, affected cells, listed as myxothiozol
  SYTOXRED (cytoplasmic and nuclear membrane permeability, viability): perturbs

## Cc1ccc(NC(=O)c2ccc(CN3CCN(C)CC3)cc2)cc1Nc1nccc(-c2cccnc2)n1 [GLEEVEC™]
[2]
  change in the cell cycle, as measured by DNA content: no concomitant change

## CNCCC(Oc1ccc(C(F)(F)F)cc1)c1ccccc1 (stereo not shown) [fluoxetine]
[1]; 100 μM
  cells that have lost "normal morphology": Approximately 30%
[1]; 100 μM, affected cells
  GSH (MBBR): reduced
  ROS (MITOSOX RED): increased

## CS(=O)(=O)N1CCN(Cc2cc3nc(-c4cccc5[nH]ncc45)nc(N4CCOCC4)c3s2)CC1 [GDC0941]
[3]
  kinetics of ERK phosphorylation: delayed

## N#CC(C#N)=NNc1ccc(OC(F)(F)F)cc1 [FCCP, carbonyl cyanide-4-(trifluoromethoxy)phenylhydrazone]
[1]; [5]
  CALCEIN: increased
  GSH: reduced
  ROS: increased
  SYTOXRED: higher
[1]; [6]
  CALCEIN AM level: normal
  GSH level: normal
  ROS (indicator of mitochondrial stress): increased
  nuclear and cytoplasmic membranes (SYTOX Red uptake): intact
[1]; 33 μM, second distinct population (light blue)
  cell morphology: altered

## CC(C)[C@@H]1NC(=O)[C@H](C)OC(=O)[C@@H](C(C)C)NC(=O)[C@@H](C(C)C)OC(=O)[C@H](C(C)C)NC(=O)[C@H](C)OC(=O)[C@@H](C(C)C)NC(=O)[C@@H](C(C)C)OC(=O)[C@H](C(C)C)NC(=O)[C@H](C)OC(=O)[C@@H](C(C)C)NC(=O)[C@@H](C(C)C)OC1=O [valinomycin]
[4]; [7]
  concentration at which red and green JC-9 fluorescence peak: ~0.045 µM
  concentration of peak green JC-9 fluorescence: ~0.05 µM
[4]; [8]
  JC-9 green fluorescence: significantly higher; also recorded: initially increase
  JC-9 red fluorescence: significantly higher; also recorded: initially increase
[4]; at higher concentrations (above green peak)
  JC-9 red/green fluorescence ratio: increasing

## CC(=O)[C@]1(O)Cc2c(O)c3c(c(O)c2[C@@H](O[C@H]2C[C@H](N)[C@H](O)[C@H](C)O2)C1)C(=O)c1ccccc1C3=O [idarubicin]
[4]; HL60 cells, 1.23 μM
  JC-9 red fluorescence versus untreated control cells: significantly higher
[4]; HL60 cells, concentration series
  concentration at which red fluorescence of JC-9 begins to increase significantly: 1.23 µM
[4]; [8]
  JC-9 green fluorescence: does not increase
